The source of these data is US20240276986A1, “Compositions With Ethofumesate And A Safener” (BAYER AKTIENGESELLSCHAFT, priority 2021, published 2024).

Each structure is given as a SMILES string. Where two headings read alike, the source gives them in different places.

For data set [1], the system named is annual bluegrass (Poa annua L.). Conditions: pre-emergence or early post-emergence at 0.8 to 4.5 kg/ha; Italian ryegrass seed fields; cited from earlier work.
In a further data set the test system is barley and wheat. Conditions: greenhouse studies; cited from earlier work.
The subject of data set [2] is volunteer wheat (Triticum aestivum L.). Conditions: cited from earlier work.
Another data set relates to winter barley (HORVW). The data set is described as follows: Field trial, crop injury in winter barley after early post-emergence spray. In kind it is in vivo, Hordeum vulgare. The conditions noted are these: post-emergence BBCH 11, 140 L/ha, ethofumesate 250 g/ha, combination 250 + 100 g/ha, visual rating vs untreated control. The procedure:
(§1) In field trials the interaction of (i) ethofumesate and (ii) the safener mefenpyr-diethyl concerning cereal crop injury was investigated.
(§2) Plots of different verities of wheat and barley crops in the field were sprayed with an application volume of 140 L/ha with a handheld spray boom.
(§3) Application of the application spray compostions was carried out early in each case post-emergence at BBCH growth stage 11 (first leaf unfolded) of the respective wheat or barley crops.
The three different winter barley (HORVW) varieties tested were CALIFORNIA, CIERZO and KWS ORBIT.
(§4) The maximum crop damage and the final crop damage were in each case visually rated on a percentage scale in relation to the untreated control (100%=all plants dead, complete crop kill; 50%=green plant biomass reduced by 50%, and 0%=like control plot, no crop injury).
(§5) The main symptoms of crop damage observed were thinning and stunting.

The subject of data set [3] is soft winter wheat (TRZAW). Briefly: Field trial, crop injury in soft winter wheat after early post-emergence spray. In kind it is in vivo, Triticum aestivum. Conditions: post-emergence BBCH 11, 140 L/ha, ethofumesate 250 g/ha, combination 250 + 100 g/ha, visual rating vs untreated control. The procedure: as §1, §2, §3
The four different soft winter wheat (TRZAW) varieties tested were ARTHUR NICK, ELIXER, PISTOLO and RUBISKO.
as §4, §5

The test system of data set [4] is cereral crops such as wheat or barley. The data set is described as follows: Own experiments, safening effect of mefenpyr-diethyl used with flufenacet. The class given is in vivo. The conditions noted are these: used with flufenacet (WSSA group 15); cereal crops such as wheat or barley.

In the case of `CCOC1Oc2ccc(OS(C)(=O)=O)cc2C1(C)C` (stereo not shown) [Ethofumesate, 2-ethoxy-2,3-dihydro-3,3-dimethylbenzofuran-5-yl methanesulfonate], the “control of annual bluegrass” value in data set [1] is on record as “eliminated annual bluegrass”. Further, in the data set on barley and wheat, the “susceptibility of barley and wheat to soil residues of ethofumesate relative to corn” value is “about 10 times”. Also, the “control of volunteer wheat” value in data set [2] (1.7 kg/ha or more, wheat in the one- to three-leaf stage) is “eliminated the wheat”; in data set [2] (applied pre-emergence soon after planting or at the end of November to wheat in the four-leaf to four-tiller stage), “not eliminated”. Moreover, the “Final crop damage in %” value in the data set with winter barley (HORVW) (Variety CALIFORNIA) is given as 12.5%; in the data set on winter barley (HORVW) (Variety CIERZO), 19.7%; in the data set on winter barley (HORVW) (Variety KWS ORBIT), 25.0%; in data set [3] (Variety ARTUR NICK) it was 11.6%; in data set [3] (Variety ELIXER), 28.3%; in data set [3] (Variety PISTOLO), 14.0%. In addition, the “Final crop damage in %” value in data set [3] (Variety RUBISKO) is 13.7%. For the same molecule, the “Maximum crop damage in %” value amounted to 25% in the data set on winter barley (HORVW) (Variety CALIFORNIA); 28% with winter barley (HORVW) (Variety CIERZO); 45% in the data set on winter barley (HORVW) (Variety KWS ORBIT); 16% in data set [3] (Variety ARTUR NICK); 63% in data set [3] (Variety ELIXER); 24% in data set [3] (Variety PISTOLO). Also, in data set [3] (Variety RUBISKO), the “Maximum crop damage in %” value worked out at 30%.

Consider `CCOC(=O)C1=NN(c2ccc(Cl)cc2Cl)C(C)(C(=O)OCC)C1` (stereo not shown) [mefenpyr-diethyl, ethyl 1-(2,4-dichlorophenyl)-5-(ethoxycarbonyl)-5-methyl-2-pyrazoline-3-carboxylate], for which the safening effect entry in data set [4] is on record as “does not have a safening effect”.
